Laboratory results as given in patent US20230277553A1, “THERAPEUTIC COMPOSITION OF CURE-PRO COMPOUNDS FOR TARGETED DEGRADATION OF BET DOMAIN PROTEINS, AND METHODS OF MAKING AND USAGE” (CORNELL UNIVERSITY, priority 2020, published 2023).
“Also recorded” adds a separate entry of the source.

Columns and labels:
Format in all cases: cell-based
[1] = biological target: T1, BRD4 (Homo sapiens, UniProt O60885); test: CURE-PRO-mediated BRD4 degradation with MDM2 ligands, WES (ProteinSimple), HCT116 cells; design: endogenous in cells; conditions: HCT116, 24 h, WES; for BRD4 degradation, in combination with MDM2 ligand 8313: 1:1 with 8313, 1-10 μM each; for BRD4 degradation, in combination with MDM2 ligand 8314: 1:1 with 8314, 1-10 μM each
Method: (§1) All cell lines were purchased from ATCC or DSMZ and grown at 37° C. with 5% CO2. Human HeLa cells were cultured in complete growth medium (Dulbecco's modified Eagle's medium (DMEM) supplemented with 10% FBS); MCF7 cells were cultured in complete growth medium (Dulbecco's modified Eagle's medium (DMEM) supplemented with 10% FBS and 0.01 mg/ml human recombinant insulin (Sigma Aldrich); Namalwa and MOLM-13 cells were cultured in complete growth medium (RPMI 1640 medium supplemented with 10% FBS); MV-4-11 were cultured in complete growth medium (Iscove's Modified Dulbecco's medium, supplemented with 10% FBS); HCT116 cells were cultured in complete growth medium (McCoy's 5a Medium supplemented with 10% FBS). For cellular degradation of BRD4 studies, cells were seeded in a 12-well plate at 70-80% confluency, allowed to attach overnight, and incubated with the indicated compounds for the indicated time. When indicated, a 15-minute pretreatment with 10 μM pomalidomide, 10 μM VHL298, 10 μM Nutlin3a, 1 μM MG-132 or 1 μM Carfilzomib was performed before the addition of CURE-PROs. For washout studies, after CURE-PRO treatment, media was aspirated and incubated with complete medium for the indicated time before lysis.
WES Simple analysis was performed on WES system (ProteinSimple-Biotechne) according to the manufacturer's instructions. Total protein concentrations of cell lysates were determined by the Pierce BCA kit (Thermo Fisher). 3 μL of 0.3 μg/μL of the protein lysate was loaded onto a 12- to 230-kDa WES assay plate (ProteinSimple) where 300 nL sample was withdrawn through a capillary, subjected to electrophoretic separation of proteins by size, and followed by the simultaneous, HRP-based detection of proteins using the Anti-Rabbit Detection Module (Proteinsimple: #DM-001). The electropherograms were checked then the automatic peak detection was manually corrected if it was required.
(§2) HCT116 cells (3×10^6) were treated for 24 hours with the compounds solubilized in DMSO. Compounds were added at 1 μM-10 μM each. Standardized protein samples were electrophoresed and imaged as described in the WES ProteinSimple section above. FIGS. 59, 60, and 61 depict the concentration-dependence of CURE-PRO-mediated BRD4 degradation using MDM2 ligands.
as §2, with “62” for “59, 60,”, “63” for “61”
HCT116 cells (3×10^6) were treated for 24 hours with the compounds solubilized in DMSO. CURE-PRO monomers were added at 10 μM each and the proteasomal inhibitors at 1 μM. Standardized protein samples were electrophoresed and imaged as described in the WES ProteinSimple section above. FIG. 68 depicts the dependence of the proteasome for CURE-PRO-mediated BRD4 degradation.

[2] = biological target: T1, BRD4; test: Summary of BRD4 degradation by CURE-PRO pairs, estimated from Western Blot or WES (Proteinsimple); design: endogenous in cells; conditions: for Degradation of BRD4 in combination with CRBN ligand [drawing 372] / Degradation of BRD4 in combination with CRBN ligand [drawing 370] / Degradation of BRD4 in combination with CRBN ligand [drawing 371]: Table 1; for Degradation of BRD4 in combination with CRBN ligand [drawing 372]: third drawing (8066); for Degradation of BRD4 in combination with CRBN ligand [drawing 370]: aromatic 1,2-diol- or hindered cis-1,2-diol-containing CRBN ligand, first drawing (8046); for Degradation of BRD4 in combination with CRBN ligand [drawing 371]: second drawing (8047)
Description: A black check mark indicates efficacy of 30% to 70% or higher protein degradation.

[3] = biological target: T1, BRD4; test: CURE-PRO-mediated BRD4 degradation, Western blot, HeLa cells; design: endogenous in cells; host or cells: HeLa; conditions: 24 h; for BRD4 degradation, co-treatment with CRBN ligand 8046: 1:1 with 8046, 10 μM each; for BRD4 degradation, co-treatment with CRBN ligand 8066: 1:1 with 8066, 10 μM each (BRD-E10: 10 and 100 μM); for BRD4 degradation, BRD ligand alone: BRD monomer alone
Method: as §1
Anti-BRD4 (13440, 1:1,000 dilution for Western Blot and 1:25 dilution for ProteinSimple); Anti-BRD2 (5848 1:1,000 dilution for Western Blot and 1:25 dilution for ProteinSimple); β-Actin (3700, 1:2,000 dilution for Western Blot), β-Actin (4970, 1:50 dilution for ProteinSimple) anti-mouse IgG-HRP, and anti-rabbit IgG-HRP antibodies were purchased Cell Signaling Technology. Anti-GAPDH (600-401-A33, 1:100 dilution for ProteinSimple) was purchased from Rockland Immunochemicals, Inc. Anti-BRD3 (sc-81202, 1:200 dilution for Western Blot) was purchased from Santa Cruz Biotechnology.
HeLa, MCF7, or HCT116 cells (2.5-3×10^6) were treated for 24 hours with the indicated compounds solubilized in DMSO. The cells were washed in ice-cold PBS and were then lysed in RIPA lysis buffer (150 mM NaCl, 5 mM EDTA, 1% NP-40, 0.5% sodium deoxycholate, 0.1% SDS, 50 mM Tris, pH 8.0.) with Roche protease inhibitor complete cocktail and phosphatase inhibitors (10 mM sodium fluoride, 10 mM sodium pyrophosphate, 1 mM sodium orthovanadate and 20 mM β-glycerophosphate). The total protein concentrations were determined by Bradford Protein Assay and 10-20 μg of protein was loaded onto 4-15% Tris-Glycine gradient gels (Biorad). After standard gel electrophoresis, the separated proteins were transferred to PVDF membrane by wet transfer. The immunoblots were then blocked for 1 hour in 5% skim milk in TBST or 5% BSA in TBST, according to manufacturer's instructions, before an overnight incubation at 4° C. with indicated antibodies and membranes. Membranes were then incubated with the appropriate horseradish peroxidase-conjugated secondary antibodies (1:5,000 dilution) for 1 h at room temperature and the bands were visualized using the Clarity Max Western ECL Substrate (Biorad) and the ChemiDoc Imaging System (Biorad). Signal was detected with ECL Western Blotting Substrate (Pierce) and X-ray film processed with a Konica SRX-101 X-ray film processor or captured by Bio-Rad's Chemidoc Imaging system.
HeLa cells (2.5×106) were treated for 24 hours with the sample compounds solubilized in DMSO. Compounds were added at 1-10 μM each. Standardized protein samples were electrophoresed and imaged as described in the immunoblotting description above. FIGS. 6-18 depicts the CURE-PRO-mediated BRD4 degradation for BRD monomers (JQ1 derivatives comprising of catechol linkers), and CRBN ligands, 8048 and 8049 (pomalidomide derivatives comprising boronic acid linkers) combined in a 1:1 ratio.
HeLa cells (2.5×106) were treated for 24 hours with the compounds solubilized in DMSO. The compounds were added at 10 μM each. Standardized protein samples were electrophoresed and imaged as described in the immunoblotting section above. […]

Compound | BRD4 degradation, in combination with MDM2 ligand 8313 [1] | BRD4 degradation, in combination with MDM2 ligand 8314 [1] | Degradation of BRD4 in combination with CRBN ligand [drawing 372] [2] | Degradation of BRD4 in combination with CRBN ligand [drawing 370] [2] | Concentration at which BRD4 degradation is observed, co-dosed with 8046 ([3]; 1:1 with 8046) [µM] | BRD4 degradation, co-treatment with CRBN ligand 8046 ([3]; Western blot) | Concentration at which BRD4 degradation is observed, co-dosed with 8046 ([3]; 1:1 with 8046, tested 1 nM-1 μM each) [µM] | BRD4 degradation, co-treatment with CRBN ligand 8066 ([3]; Western blot) | BRD4 degradation, BRD ligand alone ([3]; Western blot) | Degradation of BRD4 in combination with CRBN ligand [drawing 371] [2] | Degradation of BRD4 in combination with VHL ligand [drawing 397] ([2]; Table 3, aromatic 1,2-diol-containing VHL ligand, second drawing (8305)) | BRD4 degradation, co-treatment with CRBN ligand 8047 ([3]; 1:1 with 8047, 10 μM each, Western blot) | Concentration from which BRD4 degradation is observed, co-dosed with 8047 ([3]; 1:1 with 8047, tested 1 nM-1 μM each) [nM] | Degradation of BRD4 in combination with CRBN ligand [drawing 407] ([2]; Table 4, aryl-boronic acid-containing CRBN ligand, first drawing (by text: 8048)) | Degradation of BRD4 in combination with MDM2 ligand [drawing 424] ([2]; Table 5, aryl-boronic acid-containing MDM2 ligand, second drawing (8312)) | BRD4 degradation, co-treatment with CRBN ligand 8048 ([3]; 1:1 with 8048, 1-10 μM each, Western blot) | BRD4 degradation, co-treatment with CRBN ligand 8049 ([3]; 1:1 with 8049, 1-10 μM each, Western blot)
COc1ccc2c(c1)C(c1ccc(Cl)cc1)=N[C@@H](CC(=O)NCCCCCNC(=O)c1cccc(B(O)O)c1)c1nnc(C)n1-2 [BRD-E8] | had no effect on BRD4 protein levels | caused partial loss of the BRD4 protein; also recorded: Degradation is observed | ✓ (A black check mark indicates efficacy of 30% to 70% or higher protein degradation) | ✓ (A black check mark indicates efficacy of 30% to 70% or higher protein degradation) | 1 | causes degradation of BRD4; also recorded: Degradation is noted | 0.1 | causes degradation of BRD4; also recorded: Degradation is noted | no change in expression |  |  |  |  |  |  |  | 
COc1ccc2c(c1)C(c1ccc(Cl)cc1)=N[C@@H](CC(=O)NCCc1ccc(B(O)O)cc1)c1nnc(C)n1-2 [BRD-E14, (4-(2-(2-((4S)-6-(4-chlorophenyl)-8-methoxy-1-methyl-4H-benzo[f][1,2,4]triazolo[4,3-a][1,4]diazepin-4-yl)acetamido)ethyl)phenyl)boronic acid] |  | caused partial loss of the BRD4 protein; also recorded: Degradation is observed |  |  |  |  |  |  |  | ✓ (A black check mark indicates efficacy of 30% to 70% or higher protein degradation) | ✓ (A black check mark indicates efficacy of 30% to 70% or higher protein degradation) | causes degradation of BRD4; also recorded: Degradation is noted |  |  |  |  | 
CCNC(=O)C[C@@H]1N=C(c2ccc(Cl)cc2)c2cc(OCCNC(=O)c3cccc(B(O)O)c3)ccc2-n2c(C)nnc21 [BRD-E21, (3-((2-(((4S)-6-(4-chlorophenyl)-4-(2-(ethylamino)-2-oxoethyl)-1-methyl-4H-benzo[f][1,2,4]triazolo[4,3-a][1,4]diazepin-8-yl)oxy)ethyl)carbamoyl)phenyl)boronic acid] | had no effect on BRD4 protein levels | caused partial loss of the BRD4 protein; also recorded: Degradation is observed |  |  |  |  |  |  | no change in expression | ✓ (A black check mark indicates efficacy of 30% to 70% or higher protein degradation) |  |  | ≥ 10 |  |  |  | 
CCNC(=O)C[C@@H]1N=C(c2ccc(Cl)cc2)c2cc(OCCCCCCNC(=O)c3ccc(B(O)O)cc3)ccc2-n2c(C)nnc21 [BRD-E79, (4-((6-(((4S)-6-(4-chlorophenyl)-4-(2-(ethylamino)-2-oxoethyl)-1-methyl-4H-benzo[f][1,2,4]triazolo[4,3-a][1,4]diazepin-8-yl)oxy)hexyl)carbamoyl)phenyl)boronic acid] | caused BRD4 protein degradation at 1 and 10 μM; also recorded: Degradation of BRD4 is observed | no protein loss was observed | ✓ (A black check mark indicates efficacy of 30% to 70% or higher protein degradation) | ✓ (A black check mark indicates efficacy of 30% to 70% or higher protein degradation) |  | causes degradation of BRD4; also recorded: Degradation is noted |  | causes degradation of BRD4; also recorded: Degradation is noted | no change in expression | ✓ (A black check mark indicates efficacy of 30% to 70% or higher protein degradation) |  |  |  |  |  |  | 
CCNC(=O)C[C@@H]1N=C(c2ccc(Cl)cc2)c2cc(OCCOCCOCCOCCOCCOCCNC(=O)c3cccc(O)c3O)ccc2-n2c(C)nnc21 [BRD-N71, N-(17-(((4S)-6-(4-chlorophenyl)-4-(2-(ethylamino)-2-oxoethyl)-1-methyl-4H-benzo[f][1,2,4]triazolo[4,3-a][1,4]diazepin-8-yl)oxy)-3,6,9,12,15-pentaoxaheptadecyl)-2,3-dihydroxybenzamide] |  |  |  |  |  |  |  |  | no degradation of BRD4 |  |  |  |  | ✓ (A black check mark indicates efficacy of 30% to 70% or higher protein degradation) | ✓ (A black check mark indicates efficacy of 30% to 70% or higher protein degradation) | causes degradation of BRD4; also recorded: Some selectivity for BRD-N71 and 8048 is noted | no evidence of BRD4 degradation
